{
  "source": "paper PMC6720008",
  "about": "“A Novel Peptide Ameliorates LPS-Induced Intestinal Inflammation and Mucosal Barrier Damage via Its Antioxidant and Antiendotoxin Effects” (International Journal of Molecular Sciences, 2019)",
  "key": {"[1]": {"assay": "Ex vivo stability in plasma", "type": "in vitro ADME, rat", "procedure": "Figure 2 The mean plasma concentrations of LL-37, TP5, and LTP over times. The concentration of each target peptide in plasma in vitro at the selected times was quantified by HPLC.\nRat plasma was collected from healthy adult rats by centrifugation of whole blood samples. LL-37, TP5, and LTP were directly added to rat plasma (10 μg/mL), after which the plasma samples were incubated in a 37 °C water bath. At different times, the samples were collected into pre-chilled tubes which contained 1 mL of acidic acetone (hydrochloric acid/acetone/H2O, 1:40:5, by volume). Subsequently, the mixture was centrifuged at 2 × 10^4 rpm at 4 °C for 20 min. The precipitates were dried in vacuo, after which the dried precipitates were dissolved in 0.5 mL of 1 M acetic acid. The peptide analysis was carried out according to the protocol for the study of TP5 using HPLC [64]. The half-lives of the peptides were calculated by a logarithm-linear regression analysis of the peptide concentrations."}, "[2]": {"tested_on": "RAW264.7 macrophage cells", "settings": "CCK-8, 24 h or 72 h", "experimental": "RAW264.7 cells were pre-seeded in DMEM medium overnight. The cells were treated with various concentrations of peptides or without peptides at 37 °C and 5% CO2 for 24 h (A) or 72 h (B). They were incubated with CCK-8 solution for 4 h, and then, they were measured at 450 nm. Data are given as the mean value ± standard error from eight biological replicates. *: p ≤ 0.05, **: p ≤ 0.01, ***: p ≤ 0.001.\nThe murine macrophage cell line RAW264.7 was purchased from the Shanghai Cell Bank, the Institute of Cell Biology, China Academy of Sciences (Shanghai, China). RAW264.7 cells were cultured in Dulbecco’s modified Eagle’s medium (DMEM; Hyclone, Logan, UT, USA) supplemented with 10% (v/v) foetal bovine serum (Bioscience) and 1% (v/v) penicillin/streptomycin (Hyclone) in a 37 °C humidified incubator containing 5% CO2.\nThe viability of peptide-treated RAW264.7 cells was measured using the Cell Counting Kit-8 (CCK-8) Assay Kit (Dojindo, Japan) [63]. The cells were pre-seeded on a 96-well plate at a density of 3 × 10^4 cells/mL overnight. […] The absorbance at 450 nm was measured with a microplate reader. Cell viability was calculated as: Cell viability (%) = (OD450 (sample)/OD450(control)) × 100%(1) where OD450 (sample) is the absorbance at 450 nm of the cells with peptides treated, and OD450 (control) is the absorbance at 450 nm of the cells without peptides treated."}, "[3]": {"assay": "In vitro LPS neutralization, chromogenic end-point TAL assay", "type": "biochemical", "settings": "LPS 1.0 U/mL, peptide 0 to 64 μg/mL, 37 °C 15 min, absorbance 540 nm, three biological replicates", "procedure": "Figure 9 LPS neutralization activity of LTP in vitro and in vivo. (A) The LPS concentration in mouse plasma. (B) In-vitro LPS neutralization by LTP. LPS neutralization activity of LTP, LL-37, TP5, and PMB were determined using the chromogenic in vitro TAL assay. Data are presented as the mean value ± standard error from three biological replicates. *: p ≤ 0.05, ****: p ≤ 0.0001.\nThe neutralization of LPS by the peptides was detected using a quantitative Chromogenic End-point Tachypleus Amebocyte Lysate (CE TAL) assay with the QCL-1000 kit (Xiamen, China). Experiments were carried out according to the institutional guidelines. A constant concentration of LPS (1.0 U/mL final concentration) was incubated with different concentrations of polymyxin B (PMB) or the peptides (0 to 64 μg/mL final concentration) at 37 °C for 15 min in the wells of pyrogenic sterile microliters plates. Subsequently, the mixtures were incubated at 37 °C for 6 min in the presence of TAL assay reagent, after which the absorbances were measured at 540 nm."}, "[4]": {"settings": "rat plasma, peptide 10 μg/mL, 37 °C water bath, HPLC, logarithm-linear regression, mean ± standard error, three biological replicates, read-out: t1/2"}},
  "note": "Where two headings read alike, the source gives them in different places. Ends that are not written are not given here.",
  "data": [
    {"compound": "IGKEFKRIVQRIKDFLRNLVPRTERKDVY [LTP]", "values": [
      {"measurement": "half-life at 10 μg/mL", "setting": "[1]; [4]", "value": "240 ± 55.1", "unit": "min"},
      {"measurement": "half-life in plasma t1/2", "value": 240, "unit": "min"},
      {"measurement": "cytotoxicity on RAW264.7 cells compared with the parental peptides", "setting": "[2]; eight biological replicates", "value": "lower cytotoxicity than LL-37 and TP5"},
      {"measurement": "cytotoxicity towards RAW264.7 cells", "setting": "[2]; highest concentration of 60 μg/mL, 37 °C, 5% CO2, absorbance 450 nm, mean of eight biological replicates", "value": "no significant cytotoxicity"}
    ]},
    {"compound": "RKDVY [TP5, Thymopentin]", "values": [
      {"measurement": "half-life at 10 μg/mL", "setting": "[1]; [4]", "value": "1.32 ± 0.24", "unit": "min"},
      {"measurement": "metabolised at 5 min, 10 μg/mL", "setting": "[1]; rat plasma, peptide 10 μg/mL, 37 °C, HPLC, three biological replicates, read-out: decrease of plasma concentration after incubation for 5 min", "value": 95, "unit": "%"}
    ]},
    {"compound": "polymyxin B [PMB]", "values": [
      {"measurement": "50% binding rate value (LPS neutralization)", "setting": "[3]", "value": 1, "unit": "µg/mL"}
    ]},
    {"compound": "CC[C@H](C)[C@H](NC(=O)[C@H](CCCCN)NC(=O)[C@H](CCC(=O)O)NC(=O)[C@H](CCCCN)NC(=O)[C@H](CO)NC(=O)[C@H](CCCCN)NC(=O)[C@H](CCCNC(=N)N)NC(=O)[C@H](Cc1ccccc1)NC(=O)[C@H](Cc1ccccc1)NC(=O)[C@H](CC(=O)O)NC(=O)CNC(=O)[C@H](CC(C)C)NC(=O)[C@@H](N)CC(C)C)C(=O)NCC(=O)N[C@@H](CCCCN)C(=O)N[C@@H](CCC(=O)O)C(=O)N[C@@H](Cc1ccccc1)C(=O)N[C@@H](CCCCN)C(=O)N[C@@H](CCCNC(=N)N)C(=O)N[C@H](C(=O)N[C@H](C(=O)N[C@@H](CCC(N)=O)C(=O)N[C@@H](CCCNC(=N)N)C(=O)N[C@H](C(=O)N[C@@H](CCCCN)C(=O)N[C@@H](CC(=O)O)C(=O)N[C@@H](Cc1ccccc1)C(=O)N[C@@H](CC(C)C)C(=O)N[C@@H](CCCNC(=N)N)C(=O)N[C@@H](CC(N)=O)C(=O)N[C@@H](CC(C)C)C(=O)N[C@H](C(=O)N1CCC[C@H]1C(=O)N[C@@H](CCCNC(=N)N)C(=O)N[C@H](C(=O)N[C@@H](CCC(=O)O)C(=O)N[C@@H](CO)C(=O)O)[C@@H](C)O)C(C)C)[C@@H](C)CC)C(C)C)[C@@H](C)CC", "note": "[LL-37]", "values": [
      {"measurement": "half-life at 10 μg/mL", "setting": "[1]; rat, plasma", "value": "242 ± 45.1", "unit": "min"}
    ]}
  ]
}
